Reference: patent US6894052B1, “Diarylalkylpiperazines active on the lower urinary tract” (Recordati S.A. Chemical and Pharmaceutical Company, priority 1997, dated 2005)
Counter-ions that a name gives are not always drawn. Like-named read-outs stand apart in the source and are kept apart here.

Assays:
[1] = tested on: rhythmic bladder voiding contractions; assay: Volume-induced rhythmic bladder voiding contractions in anaesthetized rats; type: in vivo, rat; conditions: intravenous administration, anaesthetized rats; for ED50: Rattus norvegicus; for ED10min: extrapolated dose inducing 10 min of disappearance of the contractions
Method: Female Sprague Dawley rats weighing 225-275 g (Crl: CDo BR, Charles River Italia) were used. The animals were housed with free access to food and water and were maintained on a forced 12 h alternating light-dark cycle at 22-24° C. for at least one week, except during the experiment. The activity on the rhythmic bladder voiding contractions was evaluated according to the method of Dray (J. Pharmacol. Methods, 13:157, 1985), with some modifications as in Guarneri (Pharmacol. Res., 27:173, 1993). Briefly, rats were anesthetized by subcutaneous injection of 1.25 g/kg (5 ml/kg) urethane, after which the urinary bladder was catheterized via the urethra using PE 50 polyethylene tubing filled with physiological saline. The catheter was tied in place with a ligature around the external urethral orifice and was connected with conventional pressure transducers (Statham P23 ID/P23 XL). […] The bladder was then filled via the recording catheter by incremental volumes of warm (37° C.) saline until reflex bladder voiding contractions occurred (usually 0.8-1.5 ml). For intravenous (i.v.) injection of bioactive compounds, PE 50 polyethylene tubing filled with physiological saline was inserted into the jugular vein.
From the cystometrogram, the number of contractions recorded 15 min before (basal values) and after treatment, as well as the mean amplitude of these contractions (mean height of the peaks in mm Hg) was evaluated.
Since most compounds produced an effect that was relatively rapid in onset and led to a complete cessation of bladder contractions, bioactivity was conveniently estimated by measuring the duration of bladder quiescence (i.e., the duration of time during which no contractions occurred). Moreover, the number of animals tested showing a reduction in the number of contractions >30% of that observed in the basal period, was recorded. […] Also computed in this manner were extrapolated doses which induced a reduction of the number of contractions of greater than 30% in 50% of treated rats (ED50, frequency) by the method of Bliss (Bliss C. I., Quart. J. Pharm. Pharmacol. 11, 192-216, 1938). After the suppressive effects of drug injection wore off, the height of the contractile peaks was compared with the height of the peaks previously recorded after the control intravenous administration of vehicle. The potency of the tested compounds (ED50 value, the extrapolated doses inducing a 30% reduction of amplitude of the contractions in 50% of treated rats) was evaluated on a quantal basis by the method of Bliss (Bliss C. I., Quart. J. Pharm. Pharmacol. 11, 192-216, 1938).

[2] = target: T1, human 5-HT1A serotonergic receptor (Homo sapiens, UniProt P08908); assay: Radioreceptor binding to recombinant human 5-HT1A receptors ([3H]8-OH-DPAT, HeLa cell membranes)
T1 construct: expressed in transfected cells; host or cells: HeLa (human), stably transfected; cell membranes
T1 sequence (P08908 1-422): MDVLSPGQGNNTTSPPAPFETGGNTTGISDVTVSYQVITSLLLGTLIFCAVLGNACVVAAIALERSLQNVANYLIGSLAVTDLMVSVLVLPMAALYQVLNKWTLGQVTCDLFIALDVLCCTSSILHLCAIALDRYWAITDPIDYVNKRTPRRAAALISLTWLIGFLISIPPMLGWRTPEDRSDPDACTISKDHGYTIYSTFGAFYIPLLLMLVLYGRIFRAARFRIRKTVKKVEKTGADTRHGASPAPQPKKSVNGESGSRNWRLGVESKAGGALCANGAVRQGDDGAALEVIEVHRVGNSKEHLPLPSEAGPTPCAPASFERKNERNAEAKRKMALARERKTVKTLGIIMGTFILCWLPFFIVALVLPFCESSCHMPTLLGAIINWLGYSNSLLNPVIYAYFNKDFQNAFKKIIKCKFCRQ
Method: Genomic clone G-21 coding for the human 5-HT1A serotonergic receptor is stably transfected in a human cell line (HeLa). HeLa cells were grown as monolayers in Dulbecco's modified Eagle's medium (DMEM), supplemented with 10% fetal calf serum and gentamicin ([…]), 5% CO2 at 37° C. Cells were detached from the growth flask at 95% confluence by a cell scraper and were lysed in ice-cold 5 mM Tris and 5 mM EDTA buffer (pH 7.4). Homogenates were centrifuged at 40000×g×20 min and pellets were resuspended in a small volume of ice-cold 5 mM Tris and 5 mM EDTA buffer (pH 7.4) and immediately frozen and stored at −70° C. until use. On the day of experiment, cell membranes were resuspended in binding buffer: 50 mM Tris HCl (pH 7.4), 2.5 mM MgCl2, 10 μM pargyline (Fargin et al., Nature 335, 358-360, 1988). Membranes were incubated in a final volume of 1 ml for 30 min at 30° C. with 0.2-1 nM [^3H]8-OH-DPAT, in absence or presence of competing drugs; non-specific binding was determined in the presence of 10 μM 5-HT. The incubation was stopped by addition of ice-cold Tris-HCl buffer and rapid filtration through 0.2% polyethyleneimine-pretreated Whatman GF/B or Schleieher & Schuell GF52 filters.
(§1) The inhibition of specific binding of the radioligands by the tested drugs was analyzed to estimate the IC50 value by using the non-linear curve-fitting program Allfit (De Lean et al., Am. J. Physiol. 235, E97-E102, 1978). The IC50 value is converted to an affinity constant (Ki) by the equation of Cheng & Prusoff (Cheng, Y. C.; Prusoff, W. H. Biochem. Pharmacol. 22, 3099-3108, 1973).

[3] = target: T2, 5-HT2A serotonergic receptors (Rattus norvegicus, UniProt P14842); assay: Radioreceptor binding to native 5-HT2A serotonergic receptors ([3H]ketanserin, rat cerebral cortex membranes); conditions: rat cerebral cortex membranes, [3H]ketanserin; read-out: Ki 5-HT2A
T2 construct: from tissue; host or cells: cerebral cortex of male Sprague Dawley rats, membranes
Method: Binding studies on native 5-HT2A serotonergic receptors (Craig A. and Kenneth J., Life Sci. 38, 117-127, 1986) were carried out in membranes of rat cerebral cortex. Male Sprague Dawley rats (200-300 g, S D Harlan/Nossan, Italy) were killed by cervical dislocation and cerebral cortexes were excised and immediately frozen in liquid nitrogen and stored at −70° C. until use. Tissues were homogenized (2×20 sec) in 50 volumes of cold 50 mM Tris-HCl buffer pH 7.4, using a Polytron homogenizer (speed 7). Homogenates were centrifuged at 49000×g for 10 min, resuspended in 50 volumes of the same buffer, incubated at 37° C. for 15 min and centrifuged and resuspended twice more. The final pellets were suspended in 100 volumes of 50 mM Tris-HCl buffer pH 7.7. Membranes were incubated in a final volume of 1 ml for 20 min at 37° C. with 0.7-1.3 nM [^3H]ketanserin (5-HT2A receptors), in absence or presence of competing drugs. Non-specific binding was determined in the presence of 2 μM ketanserin. The incubation was stopped by addition of ice-cold 50 mM Tris-HCl buffer and rapid filtration through 0.2% polyethyleneimine pretreated Whatman GF/B or Schleicher & Schuell GF52 filters. The filters are then washed with ice-cold buffer and the radioactivity retained on the filters was counted by liquid scintillation spectrometry.
as §1

α1 adrenergic receptors = assay: Radioreceptor binding to native α1 adrenergic receptors ([3H]prazosin, rat cerebral cortex membranes)
Method: Binding studies on native α1 adrenergic receptors were carried out in membranes of rat cerebral cortex. Male Sprague Dawley rats (200-300 g, Charles River, Italy) were killed by cervical dislocation and cerebral cortexes were dissected and immediately frozen and stored at −70° C. until use. Tissue was homogenized (2×20 sec) in 50 volumes of cold 50 mM Tris-HCl buffer pH 7.4, using a Polytron homogenizer (speed 7). Homogenates were centrifuged at 48000×g for 10 min, resuspended in 50 volumes of the same buffer, incubated at 37° C. for 15 min and centrifuged and resuspended twice more. The final pellets were suspended in 100 volumes of 50 mM Tris-HCl buffer pH 7.4, containing 10 μM pargyline and 0.1% ascorbic acid. Membranes were incubated in a final volume of 1 ml for 30 min at 25° C. with 0.1-0.5 nM [^3H]prazosin, in the absence or presence of competing drugs; non-specific binding was determined in the presence of 10 μM phentolamine.
The incubation was stopped by addition of ice-cold 50 mM Tris-HCl buffer and rapid filtration through 0.2% polyethyleneimine-pretreated Whatman GF/B or Schleicher & Schuell GF52 filters. The filters were then washed with ice-cold buffer and the radioactivity retained on the filters counted by liquid scintillation spectrometry.
as §1

[4] = extrapolated dose inducing 30% reduction of amplitude of the contractions in 50% of treated rats, n.a. = not active, no significant reduction of the height of peaks, read-out: ED50 (amplitude)
[5] = extrapolated dose inducing a reduction of the number of contractions >30% in 50% of treated rats, read-out: ED50 (frequency)
[6] = recombinant human receptor in HeLa membranes, [3H]8-OH-DPAT, read-out: Ki 5-HT1A

T2 sequence (P14842 whole entry): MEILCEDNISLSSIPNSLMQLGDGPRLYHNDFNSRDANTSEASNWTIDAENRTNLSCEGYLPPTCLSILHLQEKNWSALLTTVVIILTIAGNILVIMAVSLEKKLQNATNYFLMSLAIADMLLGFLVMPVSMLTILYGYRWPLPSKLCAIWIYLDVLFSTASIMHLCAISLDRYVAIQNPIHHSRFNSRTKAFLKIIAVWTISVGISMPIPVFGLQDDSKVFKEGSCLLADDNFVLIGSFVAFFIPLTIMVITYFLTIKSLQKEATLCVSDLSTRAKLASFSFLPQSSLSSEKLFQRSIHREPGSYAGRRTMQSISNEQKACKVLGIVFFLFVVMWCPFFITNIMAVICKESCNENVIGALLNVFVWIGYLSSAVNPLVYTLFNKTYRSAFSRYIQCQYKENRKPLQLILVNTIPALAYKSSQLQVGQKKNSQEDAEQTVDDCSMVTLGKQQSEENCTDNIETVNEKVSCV

CCN(CC)CC#CCOC(=O)C(O)(c1ccccc1)C1CCCCC1 (stereo not drawn) [Oxybutynin, reference compound]
ED50 [1, 4]: 0.24 mg/kg
ED50 [1, 5]: 10 mg/kg
ED10min [1]: 7.77 mg/kg

COc1ccccc1N1CCN(CCC(O)(c2ccccn2)c2ccccn2)CC1 [Ex. 14, 1-[3-hydroxy-3,3-bis-(2-pyridyl)propyl]-4-(2-methoxyphenyl)piperazine]
ED50 [1, 5]: 0.036 mg/kg
ED10min [1]: 0.127 mg/kg
Ki [2, 6]: 0.34 nM
Ki [3]: > 1000 nM
Ki (α1 adrenergic receptors): 114 nM

COc1ccccc1N1CCN(CCC(C#N)(c2ccccn2)c2ccccn2)CC1 [Ex. 6, 1-[3-cyano-3,3-bis-(2-pyridyl)propyl]-4-(2-methoxyphenyl)piperazine]
ED50 [1, 5]: 0.093 mg/kg
ED10min [1]: 0.225 mg/kg
Ki [2]: 13.3 nM
Ki (α1 adrenergic receptors): 1250 nM

COc1ccccc1N1CCN(CCN(c2ccccn2)c2ccccc2[N+](=O)[O-])CC1 [Ex. 11, 1-[N-(2-nitrophenyl)-N-(2-pyridyl)-2-aminoethyl]-4-(2-methoxyphenyl)-piperazine]
ED50 [1, 5]: 0.024 mg/kg
ED10min [1]: 0.162 mg/kg
Ki [2, 6]: 6.74 nM
Ki (α1 adrenergic receptors): 62.5 nM

COc1ccccc1N1CCN(CCC(C#N)(c2ccccc2)c2ccccc2[N+](=O)[O-])CC1 (stereo not drawn) [Ex. 12, 1-[3-cyano-3-(2-nitrophenyl)-3-phenylpropyl]-4-(2-methoxyphenyl)piperazine]
Ki [2]: 1.45 nM
Ki [3]: 790 nM
Ki (α1 adrenergic receptors): 226 nM

Cc1c(-c2ccccc2)oc2c(C(=O)OCCN3CCCCC3)cccc2c1=O [Flavoxate, reference compound]
effect on the amplitude of the bladder contractions (in words) [1]: did not affect the amplitude of the contractions
ED10min ([1]; in µg/kg): >10000

COc1ccccc1N1CCN(CCC(C(N)=O)(c2ccccc2)c2ccccn2)CC1 (stereo not drawn) [Ex. 10, 1-[3-aminocarbonyl-3-phenyl-3-(2-pyridyl)propyl]-4-(2-methoxyphenyl)piperazine]
ED50 [1, 5]: 0.18 mg/kg
ED10min [1]: 0.228 mg/kg
Ki [2]: 19.3 nM
Ki [3]: 683 nM
Ki (α1 adrenergic receptors): 1320 nM

COc1ccccc1N1CCN(CCC(c2ccccn2)c2ccccn2)CC1 [Ex. 8, 1-[3,3-bis-(2-pyridyl)propyl]-4-(2-methoxyphenyl)piperazine]
ED50 [1, 5]: 0.0025 mg/kg
ED10min [1]: 0.074 mg/kg
Ki [2, 6]: 3.97 nM
Ki [3]: 320 nM
Ki (α1 adrenergic receptors): 191 nM

CN(C)CCCN1c2ccccc2CCc2ccccc21 [Imipramine, reference compound]
ED50 [1, 4]: 2.93 mg/kg
ED50 [1, 5]: 4.93 mg/kg
effect on the amplitude of the bladder contractions (in words) [1]: did not affect the amplitude of the contractions
ED10min [1]: > 6 mg/kg

COc1ccccc1N1CCN(CCC(C(N)=O)(c2ccccc2)c2ccccc2[N+](=O)[O-])CC1 (stereo not drawn) [Ex. 13, 1-[3-aminocarbonyl-3-(2-nitrophenyl)-3-phenylpropyl]-4-(2-methoxyphenyl)-piperazine]
ED50 [1, 5]: 0.084 mg/kg
Ki [2]: 2.3 nM
Ki (α1 adrenergic receptors): 365 nM

COc1ccccc1N1CCN(CCC(c2ccccc2)c2ccccc2)CC1 [Ex. 1, 1-(3,3-diphenylpropyl)-4-(2-methoxyphenyl)piperazine hydrochloride]
Ki [2, 6]: 3.9 nM
Ki [3]: 320 nM
Ki (α1 adrenergic receptors): 145 nM

c1ccc(C(CCN2CCN(c3cccc4c3OCCO4)CC2)c2ccccc2)cc1 [Ex. 2, 1-(3,3-diphenylpropyl)-4-[5-(2,3-dihydro-1,4-benzodioxinyl)]piperazine methanesulphonate]
Ki [2, 6]: 0.6 nM
Ki [3]: 159 nM
Ki (α1 adrenergic receptors): 208 nM

COc1ccccc1N1CCN(CCC(C(N)=O)(c2ccccn2)c2ccccc2[N+](=O)[O-])CC1 (stereo not drawn) [Ex. 17, 1-[3-aminocarbonyl-3-(2-nitrophenyl)-3-(2-pyridyl)propyl]-4-(2-methoxyphenyl)-piperazine]
Ki [2]: 5.18 nM
Ki (α1 adrenergic receptors): 307 nM

COc1ccccc1N1CCN(CCN(c2ccccn2)c2ccccn2)CC1.Cl [Ex. 5, 1-[N-N-bis-(2-pyridyl)-2-aminoethyl]-4-(2-methoxyphenyl)piperazine hydrochloride]
ED10min [1]: 0.523 mg/kg
ED50 (frequency) ([1]; extrapolated dose inducing a reduction of the number of contractions >30% in 50% of treated rats): 0.077 mg/kg
